# Experimental data taken from ChEMBL document CHEMBL3507680, “University of Dundee, Gates Library screen for HepG2 cell viability”.
# Test: Human HepG2 cell viability assay in 384 well format
# Format: toxicity, cell-based
# Parameters: dose 125 nL, time 70.5 hour; concentration not given beside the values
# Conditions: HepG2 cells, read-out: Inhibition
row,SMILES,cytotoxicity at 70.5 h
1,CCOc1ncccc1NC(=O)c1cc(C)c(C)s1,-7.38%
2,CC(C)(NCCCOc1ccc(C#N)cc1)c1nccs1,-1.99%
3,Cc1cccc(C(=O)N2CCCN(Cc3cnn(C)c3)CC2)n1,-19.9%
4,CC(=O)N1CCC2(CCN(CC3CCCCC3)C2)CC1,3.48%
5,CCN(CCO)C(=O)C1CCC(=O)N(CCc2cccc(F)c2)C1 (configuration not stated),-1.58%
6,O=C(c1cc[nH]n1)N1CCC(Nc2cccnn2)CC1,14.8%
7,CCn1cc(C(=O)NCC(C)(CC)N2CCOCC2)c2ccccc21 (configuration not stated),5.27%
8,COCCn1cnnc1CNc1cc(C)nc2c(C)c(C)nn12,-5.61%
9,COCCN1CCOCC2(CCN(c3cnccn3)CC2)C1,8.46%
10,Cn1ccc(CN2CCC(NC(=O)Cc3ccccc3)CC2)cc1=O,2.35%
11,CN(C)[C@@H]1CN(C(=O)COc2cccc(F)c2)C[C@H]1O,-9.79%
12,CCn1ccnc1CN1CCC(N(Cc2ncc(C)o2)C(C)=O)C1 (configuration not stated),4.91%
13,Cc1cc(C2CCC2)nc(N2CC(n3cccn3)C2)n1,-4.39%
14,O=S(=O)(NCC1COc2ccccc2C1)N1CCCCC1 (configuration not stated),-9.29%
15,Cn1cc(C(=O)NCc2cn3c(n2)CN(Cc2ccccn2)CC3)cn1,-1.02%
16,Cc1cc(S(=O)(=O)NC(=O)CCc2cncc(F)c2)c(C)s1,-1.54%
17,COc1ccc(NC(=O)C2OC(c3cccs3)=NN2C(C)=O)cc1OC (configuration not stated),2.61%
18,Cc1ccc(C(=O)Nc2nnc(C(C)C)s2)c(-n2cnnn2)c1C,-5.81%
19,CN1CC[C@]2(CN(CC3CCOC3)C[C@H]2c2ccccc2)C1=O (some centres not stated),16.2%
20,COCCn1cc(C(=O)N2CCCC2c2cccc(F)c2)ccc1=O (configuration not stated),-4.27%
21,Cc1oc(C(=O)O)cc1S(=O)(=O)Nc1ccc(Cl)cc1F,-0.71%
22,CS(=O)(=O)NC1CCN(C(=O)NCCc2ccccn2)CC1,13.9%
23,NS(=O)(=O)c1cnc(NCC2(c3cccc(F)c3)CCOCC2)s1,-0.912%

row,SMILES,cytotoxicity at 70.5 h
1,O=C(Cn1ccc2ncccc2c1=O)N1CCSCC1,29.2%
2,CCC(CN1CCCC1)n1cncc1-c1cnn(-c2ccc(F)cc2)c1 (configuration not stated),-5.95%
3,Cc1ccc(C(=O)N2CCN(Cc3cccs3)CC2)c(=O)[nH]1,-3.21%
4,CC1=C(CCN2C[C@H](O)[C@@H](N3CCOCC3)C2)C(C)(C)CCC1,-8.76%
5,Cc1nccn1CC1CCCN1S(=O)(=O)Cc1ccccc1F (configuration not stated),-7.26%
6,Cc1c(C)n(Cc2ccncc2)c2nc3c(c(N)c12)CCCCC3,25.4%
7,COCCN1CCN(C(C)C(=O)Nc2ccnn2C(C)C)CC1 (configuration not stated),1.69%
8,Cc1nc(C2CCCN2C(=O)Cc2ccc(F)cc2)ncc1C(N)=O (configuration not stated),-8.28%
9,CCc1ccc(C(=O)N2CCCn3nnc(Cn4cccn4)c3C2)cc1,-5.86%
10,Cc1c(C2CCCN(C(=O)OC(C)(C)C)C2)n2c(nc1=O)CCC2 (configuration not stated),-5.64%
11,Cc1cc(CN2CCN(C(=O)NCCCc3cn[nH]c3C)CC2)on1,-4.02%
12,CC(=O)N1CCN(c2ccc3ccc(C(=O)NC4CCCC4)cn23)CC1,-14.6%
13,CC(C)(C)n1nnnc1CN(Cc1ccccc1)Cc1ccc(Cl)cc1,8.17%
14,Cc1cc(N2CCC(N(C)C(=O)c3cccs3)CC2)nc(C)n1,-18.8%
15,CC(=O)c1c(O)ccnc1C(F)(F)F,-3.79%
16,Cc1noc(C)c1CN1C[C@@H]2COC[C@]2(COc2ccc(C#N)cn2)C1,-2.55%
17,FC(F)(F)c1c[nH]c(C2CCN(c3ncccn3)CC2)n1,-15.4%
18,CC(CNC(=O)NCc1ccoc1)N1CCc2sccc2C1 (configuration not stated),6.45%
19,COc1cc(N2CCC(c3nccn3Cc3ccccn3)CC2)ncn1,-4.99%
20,O=C(c1cc(Cl)c[nH]c1=O)N1C[C@@H]2CC[C@H](C1)N(Cc1ccccc1)C2,12.7%
21,CC(C)CC(C)N(C)C(=O)c1nc(S(C)(=O)=O)n2ccccc12 (configuration not stated),2.74%
22,CCCn1ncc(CN(CCN(C)C)Cc2ccsc2)c1C,31.8%
23,Cc1cccn2c(CNC(C)CCc3ccc(O)cc3)cnc12 (configuration not stated),-7.78%

row,SMILES,cytotoxicity at 70.5 h
1,N#Cc1cnn(CCN2CCOC(CNc3cccnn3)C2)c1 (configuration not stated),4.89%
2,Cc1noc(C)c1C1CCCN1C(=O)c1cn2ccsc2n1 (configuration not stated),-3.13%
3,Cc1noc(C(C)Nc2ccc3oc(C(C)C)nc3c2)n1 (configuration not stated),1.64%
4,COc1ccc(F)cc1NC(=O)NCC1(C)COC1,0.338%
5,CC(CNC(=O)c1cccc(-n2cccn2)n1)Cn1ccnc1 (configuration not stated),-2.98%
6,CC1CCN(C(=O)[C@H]2CC[C@@H]3[C@@H](CCN3Cc3nccs3)O2)CC1,25.3%
7,CCCS(=O)(=O)N1CCCC(c2nc(-c3ccccc3)c[nH]2)C1 (configuration not stated),-2.79%
8,CN1CCc2c(C#N)c(NCCN3CCOCC3)n3cnnc3c2C1,-3.13%
9,Cc1ccc(CCCC(=O)N2CCCC(CS(N)(=O)=O)C2)s1 (configuration not stated),-5.56%
10,Cc1nn(CCC#N)c(C)c1CCC(=O)N(C)Cc1ccsc1,-8.77%
11,Cc1noc([C@]23COC[C@H]2CN(C(=O)Cc2ccsc2)C3)n1,-2.9%
12,CCCS(=O)(=O)NCc1ncc(C)c(OC)c1C,9.44%
13,Cc1cnn(CC2CCCN2C(=O)c2csc(-c3nnc[nH]3)n2)c1 (configuration not stated),-5%
14,CCc1ncncc1C(=O)NCCNS(=O)(=O)c1ccccc1,13.9%
15,Cc1cccc2sc(NC(=O)CN3CCCC4(CC3)CNC(=O)O4)nc12 (configuration not stated),-7.84%
16,Cc1cc(C)nc(C2CCN(C(=O)c3cnc(N(C)C)nc3)C2)n1 (configuration not stated),-4.6%
17,COC1CCN(C(=O)Nc2ccccc2)CC(=O)N(C)c2ccccc21 (configuration not stated),-6.71%
18,Cc1cc(C)c(CNC(=O)N(C)Cc2sccc2C)c(=O)[nH]1,-10.7%
19,O=C1N(Cc2cccc(F)c2)CCC12CCN(c1ccccn1)CC2,-8.45%
20,N#CC1CCCN(C(=O)Cn2ncc(N3CCCC3)cc2=O)C1 (configuration not stated),-7.57%
21,Cc1nn(C)c(N(C)C)c1CNC(C)c1cccnc1 (configuration not stated),-6.25%
22,CCOC(=O)C1(Cc2ccc(Cl)cc2)CCN(Cc2ncc[nH]2)CC1,-10.4%
23,CN(C)CCCN1CC2(CCN(C3CCCOC3)CC2)OC1=O (configuration not stated),-6.54%

row,SMILES,cytotoxicity at 70.5 h
1,CCN(CC)C(=O)NCCc1ccn(-c2ccccc2)n1,11%
2,c1c[nH]c(CN2CCC3(CC2)COCCN(CCN2CCCC2)C3)c1,-10.3%
3,Cc1occc1C(=O)N1CCN2C[C@H](Oc3cccnc3)C[C@H]2C1,0.855%
4,CCN1CCC2(CC1)CC(NC(=O)N(C)C)c1cc(C)ccc12 (configuration not stated),1.47%
5,CC(=O)N1CCN(C(=O)Nc2cnc3c(cnn3C(C)C)c2)CC1,14.8%
6,Cc1nc(C(C)(C)NC(=O)Nc2ccc(C#N)cc2)no1,-4.52%
7,CC(C)C(Sc1nnc(NC2CC2)s1)C(=O)NCc1cccnc1 (configuration not stated),-15.5%
8,CSC(C)(C)CNC(=O)NCc1cccc(-n2ccnc2)c1,-12.4%
9,COc1ccc(COCC(O)CN(C)c2ccc(C)cc2C)cc1 (configuration not stated),0.463%
10,COc1ccccc1C(C)N1CCN(S(=O)(=O)N(C)C)CC1 (configuration not stated),4.97%
11,Cc1cc(C(F)(F)F)n2nc(C3CCCN(S(C)(=O)=O)C3)cc2n1 (configuration not stated),-2.03%
12,N#Cc1ccc(CN2CCN(C(=O)c3cc(C4CC4)[nH]n3)CC2)cc1,0.0729%
13,O=C(O)[C@]12CCCN(Cc3ccccc3)C[C@H]1CN(c1ncccn1)C2,-5.39%
14,Cn1ncc2c(N3CCN(C(=O)c4ccsc4)CC3)ncnc21,-4.15%
15,Cc1n[nH]c(C)c1NC(=O)NCc1ccccn1,-8.47%
16,COCC1CC2(CCN(C(=O)c3occc3C)CC2)CO1 (configuration not stated),-6.11%
17,Cn1ncnc1-c1ccnc(N2CCC(C(O)c3cccs3)CC2)n1 (configuration not stated),-10.9%
18,COc1cc(C(=O)N2Cc3cnc(C(C)(C)C)nc3C2)ccn1,-2.74%
19,Cc1ccc2c(n1)N(CCn1cccn1)CCN(S(C)(=O)=O)C2,27.2%
20,Cn1ccnc1CN1CC[C@@H](NS(C)(=O)=O)[C@@H]1Cc1cccnc1,-2.76%
21,Cc1cc(C)c(S(=O)(=O)Nc2c(C)nc(N(C)C)nc2C)cc1C,7.13%
22,CC(C)(C)c1nc(CN2CCc3onc(-c4cccc(F)c4)c3C2)no1,-12.1%
23,Cc1cc2n(n1)CCN(c1nc(N(C)C)nc3c1CCNC3)C2,14.4%

row,SMILES,cytotoxicity at 70.5 h
1,COCC(=O)N1CCN(C(=O)Cc2cccs2)[C@H]2CS(=O)(=O)C[C@H]21,-5.46%
2,CCC(C)[C@H](NC(=O)c1ccc(F)cc1-n1cnnn1)C(=O)OC (some centres not stated),-10.7%
3,Cc1nc[nH]c1CN1CCC(CNC(=O)c2cccc3cnccc23)C1 (configuration not stated),-7.78%
4,Cc1ccc(C(=O)N(C)CCCc2cnn(C)c2)cc1N1CCNC1=O,46.5%
5,Cc1cc(=O)c(C(=O)Nc2cccc(CCN3CCCC3)c2)c[nH]1,-2.1%
6,OCCO[C@H]1C[C@@H](O)C12CCN(Cc1nc(C(F)(F)F)no1)CC2,-8.19%
7,Cc1nc2[nH]cnc(Nc3cnn(C)c3)c-2n1,0.28%
8,O=C1COc2cc(C(=O)NS(=O)(=O)c3ccccc3F)ccc2N1,21.7%
9,CC(C)(C)NC(=O)CN1CCCC(c2ccc(C(=O)O)cc2)C1 (configuration not stated),0.492%
10,CC(C)c1cc(C(=O)N2CCN(CC3CC3)[C@@H]3CS(=O)(=O)C[C@@H]32)no1,-3.21%
11,Cc1ccc(C(=O)N(CC2CCCO2)c2ccncc2)o1 (configuration not stated),-8.12%
12,COc1ccc2c(c1)OC1(CCN(Cc3cccc(C)c3)CC1)CC2=O,-2.19%
13,COCCOc1ccc(NC(=O)N2CCCC2c2cccs2)cn1 (configuration not stated),-4.81%
14,Cc1ccccc1CN(C)Cc1nc2c(cnn2C)c(=O)[nH]1,-7.81%
15,O=S(=O)(c1cccnc1)N1CCC(OCCCc2ccccc2)C1 (configuration not stated),-0.248%
16,COc1cc(C(=O)N2CCCS2(=O)=O)ccc1OC(C)C,21.8%
17,Cc1cc(C)n(CC2CN(CC(=O)NCc3cccs3)CCO2)n1 (configuration not stated),13.4%
18,CN1CCc2[nH]nc(C(=O)N3CCC4(CN(C)C(=O)O4)C3)c2C1 (configuration not stated),-6.62%
19,Cn1nc(C2CCCN(C(=O)CO)C2)cc1O (configuration not stated),19.8%
20,CNS(=O)(=O)c1ccc(CNC(=O)C2CN(C)CCO2)cc1 (configuration not stated),-5.64%
